Measurements taken from PubChem BioAssay AID1259411 (Chemical Carcinogenesis Research Information System (CCRIS), 2018).
The source made the active and inactive calls. How the calls were made is not given here.

Tested on: rodent carcinogenicity bioassays, tumor incidence
Experiment: CCRIS carcinogenicity studies
Summary of the method: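 NCI-built, expert-reviewed records of carcinogenicity and related test outcomes (mutagenicity, tumor promotion/inhibition) compiled from published and report sources, historical span 1985-2011, not updated.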

## O=c1ccc(=O)[nH][nH]1
Species: MOUSE, Strain/Sex: ICR/HA SWISS/FEMALE, Route: SUBCUTANEOUS, Dose: 0, 0.5 MG IN 0.1 ML WATER ON D 1 AND 7 OF AGE THEN 0, 1 MG IN 0.2 ML ON D 14 AND 21 FOR A TOTAL DOSE OF 0, 3 MG (STUDY D, Dose: 0, 0.5 MG IN 0.1 ML WATER ON D 1 AND 7 OF AGE THEN 0, 1 MG IN 0.2 ML ON D 14 AND 21 FOR A TOTAL DOSE OF 0, 3 MG (STUDY D
  carcinogen call: inactive; negative
Species: MOUSE, Strain/Sex: ICR/HA SWISS/FEMALE, Route: SUBCUTANEOUS, Dose: 0, 5 MG IN 0.1 ML TRICAPRYLIN SUSPENSION ON D 1 OF AGE THEN 0, 10 MG IN 0.1 ML ON D 7, 0, 20 MG IN 0.2 ML ON D 14 AND 21, Dose: 0, 5 MG IN 0.1 ML TRICAPRYLIN SUSPENSION ON D 1 OF AGE THEN 0, 10 MG IN 0.1 ML ON D 7, 0, 20 MG IN 0.2 ML ON D 14 AND 21
  carcinogen call: inactive; negative
Species: MOUSE, Strain/Sex: ICR/HA SWISS/MALE, Route: SUBCUTANEOUS, Dose: 0, 5 MG IN 0.1 ML TRICAPRYLIN SUSPENSION ON D 1 OF AGE THEN 0, 10 MG IN 0.1 ML ON D 7, 0, 20 MG IN 0.2 ML ON D 14 AND 21, Dose: 0, 5 MG IN 0.1 ML TRICAPRYLIN SUSPENSION ON D 1 OF AGE THEN 0, 10 MG IN 0.1 ML ON D 7, 0, 20 MG IN 0.2 ML ON D 14 AND 21, Tumor Site: Type of Lesion: LIVER: HEPATOMA
  carcinogen call: active; positive

## O=C1CCO1
Species: MOUSE, Route: DERMAL, Tumor Site: Type of Lesion: INTEGUMENTARY SYSTEM (SKIN)
  carcinogen call: active; positive
Species: MOUSE, Route: INTRAPERITONEAL, Tumor Site: Type of Lesion: LIVER, LYMPHATIC SYSTEM: LYMPHOMA
  carcinogen call: active; positive
Species: MOUSE, Route: SUBCUTANEOUS, Tumor Site: Type of Lesion: INJECTION SITE
  carcinogen call: active; positive
Species: MOUSE, Strain/Sex: CF1/FEMALE, Route: DERMAL, Dose: 0, 2% IN ACETONE 2D/WK FOR 2 YR (STUDY DURATION: 2 YR), Tumor Site: Type of Lesion: SKIN: SQUAMOUS CELL CARCINOMA, SKIN: CARCINOSARCOMA
  carcinogen call: active; positive
Species: MOUSE, Strain/Sex: CF1/MALE, Route: DERMAL, Dose: 0, 2% IN ACETONE 2D/WK FOR 104 WK (STUDY DURATION: 2 YR), Tumor Site: Type of Lesion: SKIN: SQUAMOUS CELL CARCINOMA, SKIN: DERMAL FIBROSARCOMA, SKIN: CARCINOSARCOMA, Tumor Site: Type of Lesion: SKIN: SQUAMOUS CELL CARCINOMA, SKIN: DERMAL FIBROSARCOMA, SKIN: CARCINOSARCOMA
  carcinogen call: active; positive
Species: RAT, Route: SUBCUTANEOUS, Tumor Site: Type of Lesion: INJECTION SITE
  carcinogen call: active; positive
Species: RAT, Strain/Sex: SPRAGUE-DAWLEY/MALE, Route: INHALATION, Dose: 0, 5, 10, 20 PPM 6 HR/D 5 D/WK FOR 30 D EXCEPT 20 PPM GROUP WHICH WAS EXPOSED FOR 5 D (STUDY DURATION: LIFETIME), Dose: 0, 5, 10, 20 PPM 6 HR/D 5 D/WK FOR 30 D EXCEPT 20 PPM GROUP WHICH WAS EXPOSED FOR 5 D (STUDY DURATION: LIFETIME), Tumor Site: Type of Lesion: NASAL CAVITY: TUMORS
  carcinogen call: active; positive

## O=C(O)[C@H]1O[C@@H](Nc2ccc3c(c2)Cc2ccccc2-3)[C@H](O)[C@@H](O)[C@@H]1O
Species: RAT, Strain/Sex: F344/MALE, Route: INJECTION, Dose: 0;1 UMOL IN 0.5 ML OF SOLUTION CONTAINING 0.4 ML PHOSPHATE BUFFERED SALINE/ GENTAMYCIN (PH 7) AND 0.1 ML DMSO INJECTED I
  carcinogen call: inactive; negative

## O=S(=O)([O-])[O-].[O]=[V+2]
Species: MOUSE, Strain/Sex: SWISS/FEMALE, Route: ORAL, Dose: 0, 5 PPM IN DRINKING WATER FOR DURATION OF STUDY (STUDY DURATION: LIFE SPAN)
  carcinogen call: inactive; negative
Species: MOUSE, Strain/Sex: SWISS/MALE, Route: ORAL, Dose: 0, 5 PPM IN DRINKING WATER FOR DURATION OF STUDY (STUDY DURATION: LIFE SPAN)
  carcinogen call: inactive; negative

## CCOc1ccc(N(O)C(C)=O)cc1
Species: RAT, Strain/Sex: ALBINO/MALE, Route: ORAL, Dose: 0.05, 0.1, 0.5% IN DIET, Dose: 0.05, 0.1, 0.5% IN DIET, Tumor Site: Type of Lesion: LIVER: HEPATOCELLULAR CARCINOMA
  carcinogen call: active; positive

## CCOC(=O)CC(SP(=S)(OC)OC)C(=O)OCC (centres undefined)
Species: MOUSE, Strain/Sex: B6C3F1/FEMALE, Route: ORAL, Dose: 0, 8000, 16000 PPM IN DIET, Dose: 0, 8000, 16000 PPM IN DIET
  carcinogen call: inactive; negative
Species: MOUSE, Strain/Sex: B6C3F1/MALE, Route: ORAL, Dose: 0, 8000, 16000 PPM IN DIET, Dose: 0, 8000, 16000 PPM IN DIET
  carcinogen call: inactive; negative
Species: RAT, Strain/Sex: F344/FEMALE, Route: ORAL, Dose: 0, 2000, 4000 PPM IN DIET, Dose: 0, 2000, 4000 PPM IN DIET
  carcinogen call: inactive; negative
Species: RAT, Strain/Sex: F344/MALE, Route: ORAL, Dose: 0, 2000, 4000 PPM IN DIET, Dose: 0, 2000, 4000 PPM IN DIET
  carcinogen call: inactive; negative
Species: RAT, Strain/Sex: OSBORNE-MENDEL/FEMALE, Route: ORAL, Dose: 0, 4700, 8150 PPM IN DIET, TWA FOR 80 WK, Dose: 0, 4700, 8150 PPM IN DIET, TWA FOR 80 WK
  carcinogen call: inactive; negative
Species: RAT, Strain/Sex: OSBORNE-MENDEL/MALE, Route: ORAL, Dose: 0, 4700, 8150 PPM IN DIET, TWA FOR 80 WK, Dose: 0, 4700, 8150 PPM IN DIET, TWA FOR 80 WK
  carcinogen call: inactive; negative

## Nc1ccc2c(c1)Cc1ccccc1-2
Species: MOUSE, Strain/Sex: MALE,FEMALE, Route: DERMAL, Dose: 4% SOLN IN ACETONE, 90 APPLICATIONS (TOTAL DOSE: 270 MG), Tumor Site: Type of Lesion: LIVER: HEPATOMA, INTESTINES
  carcinogen call: active; positive
Species: RAT, Strain/Sex: F344/MALE, Route: INJECTION, Dose: 0, 1 UMOL IN 0.5 ML OF SOLUTION CONTAINING 0.4 ML PHOSPHATE BUFFERED SALINE/ GENTAMYCIN (PH 7) AND 0.1 ML DMSO INJECTED
  carcinogen call: inactive; negative
Species: RAT, Strain/Sex: HOLTZMAN/FEMALE, Route: ORAL, Dose: 1.62 MMOL/KG IN DIET, Tumor Site: Type of Lesion: MAMMARY GLAND, EAR (DUCT)
  carcinogen call: active; positive
Species: RAT, Strain/Sex: HOLTZMAN/MALE, Route: ORAL, Dose: 1.62 MMOL/KG IN DIET, Tumor Site: Type of Lesion: LIVER, EAR (DUCT), INTESTINES (SMALL), Tumor Site: Type of Lesion: LIVER, EAR (DUCT), INTESTINES (SMALL)
  carcinogen call: active; positive
Species: RAT, Strain/Sex: WISTAR/MALE, Route: DERMAL, Dose: 4% SOLN IN ACETONE 3/WK FOR 30 WK (TOTAL DOSE: 270 MG), Tumor Site: Type of Lesion: LIVER: HEPATOCELLULAR CARCINOMA, EAR (ZYMBAL GLAND): CARCINOMA
  carcinogen call: active; positive

## CC(C)NC(=O)N1CC(=O)N(c2cc(Cl)cc(Cl)c2)C1=O
Species: Mouse, Strain/Sex: CD-1/Female (50/Group), Route: Oral, Dose: 0, 160, 800, 4000 ppm of 95.7% iprodione in diet for 99 wk, study duration 99 wk, Dose: 0, 160, 800, 4000 ppm of 95.7% iprodione in diet for 99 wk, study duration 99 wk, Tumor Site: Type of Lesion: Liver: hepatocellular adenoma and carcinoma in high dose mice
  carcinogen call: active; positive
Species: Mouse, Strain/Sex: CD-1/Male (50/Group), Route: Oral, Dose: 0, 160, 800, 4000 ppm of 95.7% iprodione in diet for 99 wk, study duration 99 wk, Dose: 0, 160, 800, 4000 ppm of 95.7% iprodione in diet for 99 wk, study duration 99 wk, Tumor Site: Type of Lesion: Liver: hepatocellular adenoma and carcinoma in high dose mice
  carcinogen call: active; positive
Species: Rat, Strain/Sex: Sprague-Dawley/Female (60/Group), Route: Oral, Dose: 0, 8.4, 16.5, 95 mg/kg/day of 94.5-95.7% iprodione in diet for 104 wk, study duration 104 wk, Dose: 0, 8.4, 16.5, 95 mg/kg/day of 94.5-95.7% iprodione in diet for 104 wk, study duration 104 wk
  carcinogen call: inactive; negative
Species: Rat, Strain/Sex: Sprague-Dawley/Male (60/Group), Route: Oral, Dose: 0, 6.1, 12.4, 69 mg/kg/day of 94.5-95.7% iprodione in diet for 104 wk, study duration 104 wk, Dose: 0, 6.1, 12.4, 69 mg/kg/day of 94.5-95.7% iprodione in diet for 104 wk, study duration 104 wk, Tumor Site: Type of Lesion: Testes: Interstitial cell adenoma (high dose only)
  carcinogen call: active; positive

## [Ni]=[Se]
Species: RAT, Strain/Sex: F344/MALE, Route: INTRAMUSCULAR, Tumor Site: Type of Lesion: INJECTION SITE: SARCOMA
  carcinogen call: active; positive

## Nc1cc(Cl)nc(C(=O)O)c1Cl
Species: Mouse, Strain/Sex: CD-1/Female, Route: Oral, Dose: 0, 5, 250, 1000 mg/kg/d in feed for 18 mo, Dose: 0, 5, 250, 1000 mg/kg/d in feed for 18 mo
  carcinogen call: inactive; negative; purity was 94.5%
Species: Mouse, Strain/Sex: CD-1/Male, Route: Oral, Dose: 0, 5, 250, 1000 mg/kg/d in feed for 18 mo, Dose: 0, 5, 250, 1000 mg/kg/d in feed for 18 mo
  carcinogen call: inactive; negative; purity was 94.5%
Species: Rat, Strain/Sex: F344/Female, Route: Oral, Dose: 0, 5, 50, 500, 1000 mg/kg/d in feed for 24 mo, Dose: 0, 5, 50, 500, 1000 mg/kg/d in feed for 24 mo
  carcinogen call: inactive; negative; purity was 94.5%
Species: Rat, Strain/Sex: F344/Male, Route: Oral, Dose: 0, 5, 50, 500, 1000 mg/kg/d in feed for 24 mo, Dose: 0, 5, 50, 500, 1000 mg/kg/d in feed for 24 mo
  carcinogen call: inactive; negative; purity was 94.5%
